Measurements: patent US7972831B2, “Lipases from thermophilic anaerobes” (Novozymes A/S, priority 2004, dated 2011)
Structures can show the parent of a compound that is named as a salt.

Columns and labels:
lipase of SEQ ID NO: 2 [1] = assay: Effect of solvents on lipase activity; format: biochemical, Thermoanaerobacter thermohydrosulfuricus; conditions: solvent up to 50% by volume
lipase of SEQ ID NO: 2 [2] = assay: Substrate specificity for pNP-esters; format: biochemical, Thermoanaerobacter thermohydrosulfuricus; conditions: pNP-ester 1 mM, pH 8.0, 10 min at 70° C.
lipase of SEQ ID NO: 4 = assay: Effect of inhibitors on lipase activity; format: biochemical, Caldanaerobacter subterraneus subsp. tengcongensis; conditions: for effect on the activity of the lipase: up to 10 mM; for inactivation of the lipase: 0.1-1 mM
lipase of SEQ ID NO: 2 [3] = assay: Effect of inhibitors on lipase activity; format: biochemical, Thermoanaerobacter thermohydrosulfuricus; conditions: for effect on the activity of the lipase: up to 10 mM; for inactivation of the lipase: 0.1-1 mM
[4] = test system: lipase from T. thermohydrosulfuricum (SEQ ID NO: 2); assay: Alcoholysis of triacylglycerols (positional specificity towards triglycerides); format: biochemical, Thermoanaerobacter thermohydrosulfuricus; conditions: for DG 1,2- 2,3- / DG 1,3- / FA (fatty acid) / MG 1- 3- / TG (remaining substrate): alcoholysis with ethanol in acetone, 7 h at 65° C.
Description: Alcoholysis of various triacylglycerols catalyzed by the lipase of SEQ ID NO: 2 were tested. All substrates were alcoholyzed by the lipase. […] For other substrates the conversions were above 40%. The lipase catalysed the synthesis of 1,3-diacylglycerides and 1- and 3-monoacylglycerides from triacylglycerides at highest rate. No sn2-monoglyceride was produced. […] With the length of the ester bonds the 2-positional specificity of the protein increased.
The positional specificity of the lipase from T. thermohydrosulfuricum (SEQ ID NO: 2) was tested towards the following triglycerides (TG, triacylglycerols): trilaurin (C12), trimyristin (C14), tripalmitin (C16), tristearin (C18), Triolein (C18:1). Each TG (3 mmol) was dissolved in organic solvent (2 ml acetone) and pre-equilibrated at 65° C. for 15 min, 400 rpm. Dry ethanol (3 mmol) was added and reaction mixture was incubated at 65° C. for 15 min, 400 rpm. Lipase (10% based on TG weight) was added to start reaction. Reaction was carried out in a 4-ml screw-capped vial and the reaction mixture was mixed with magnetic stirrer (400 rpm). Aliquot amount of reaction mixture (20 μl) was periodically withdrawn and diluted with chloroform (80 μl) to appropriate dilution, followed by analysis with latroscan to determine acylglycerol composition.
Changes in glycerides composition of the reaction medium during reaction were quantitatively determined by TLC/FID using latroscan analytical methods (latroscan, latron Laboratories, Inc., Tokyo, Japan). Before analysis, a blank of the chromarod was scanned. After treating chromarod with boric acid (3%) and drying for 5 min, 0.1 μl of the reaction medium (diluted in chloroform at appropriate dilution) is spotted onto the chromarod and the spotted sample was developed for 10 cm in a mixture of benzene:chloroform:acetic acid (50:30:0.5, by vol) for 35 min. After drying, the chromarod in an oven at 110° C. for 5 min, scanning is performed at a hydrogen flow rate of 160 ml/min and an air flow rate of 2.01/min to produce a chromatogram.
The results of the alcoholysis of the triacylglycerols catalysed by the lipase from […] after 7 h reactions time at 65° C. are given below as % of remaining substrate (TG) and % of the following products: fatty acid (FA), diglycerides (DG, with 1,3-DG separated from 1,2- and 2,3-DG), monoglyceride (MG, with 2-MG separated from 1- and 3-MG).

lipase of SEQ ID NO: 2 [5] = assay: Substrate specificity with triacylglycerols; format: biochemical, Thermoanaerobacter thermohydrosulfuricus; conditions: triacylglycerol 10 mM, pH 8.0, 25 h at 70° C.
Description: The lipase of SEQ ID NO: 2 was tested by reaction with various triacylglycerols 10 mM (pH 8.0) as substrates: for 25 h at 70° C. Similar results were obtained with the lipase of SEQ ID NO: 4.

lipase = assay: Effect of detergent ingredients on lipase activity; format: biochemical; conditions: 1.5 hours at 30° C., up to 10% by weight of compound
Description: The activity of the lipase was tested after incubation for 1.5 hours at 30° C. with up to 10% by weight of various compounds.

lipase of SEQ ID NO: 2 [6] = assay: Positional specificity towards monoglycerides; format: biochemical, Thermoanaerobacter thermohydrosulfuricus
[7] = Effect of pH on lipase activity; format: biochemical
[8] = Specific activity of purified lipase; format: biochemical, Thermoanaerobacter thermohydrosulfuricus; conditions: after three-step purification
Description: The lipase solution obtained after hydrophobic interaction chromatography was loaded on a hydroxilapatite column used as a second purification step. The lipase was eluted at the approximate mid-point of the sodium phosphate buffer gradient (220 to 250 mM range). The active fractions were further subjected to gel filtration column. […] The enzyme activity was present in the second major peak. The lipase was purified approximately 133.5-fold over the crude extract with a 10.2% yield. The specific activity of the purified lipase was 12.3 U/mg.

For `CC(C)O` [isopropanol], the “effect on the activity of the lipase” value (lipase of SEQ ID NO: 2 [1]) was “little effect”.

For `CCCCCCCCCCCC(=O)Oc1ccc([N+](=O)[O-])cc1` [pNP-laurate, pNP-laurate (C12:0)], the Relative activity (lipase of SEQ ID NO: 2 [2]) was 84.

For `CC#N` [acetonitrile], the “effect on the activity of the lipase” value (lipase of SEQ ID NO: 2 [1]) was “little effect”.

For `OCCS` [b-mercaptoethanol], the “effect on the activity of the lipase” value (lipase of SEQ ID NO: 4) was “little effect” and the “effect on the activity of the lipase” value (lipase of SEQ ID NO: 2 [3]) was “little effect”.

In the case of `C[S+](C)[O-]` [DMSO], the “effect on the activity of the lipase” value (lipase of SEQ ID NO: 2 [1]) is reported as “little effect”.

`CCCCCCCCCCCCCCCC(=O)Oc1ccc([N+](=O)[O-])cc1` [pNP-palmitate, pNP-palmitate (C16:0)] showed a Relative activity (lipase of SEQ ID NO: 2 [2]) of 32.

With `O=C(O)CI` [iodo-acetate] the “effect on the activity of the lipase” value (lipase of SEQ ID NO: 4) was “little effect” and the “effect on the activity of the lipase” value (lipase of SEQ ID NO: 2 [3]) was “little effect”.

For `N=C(N)N` [guanidine hydrochloride], the “effect on the activity of the lipase” value (lipase of SEQ ID NO: 4) was “little effect” and the “effect on the activity of the lipase” value (lipase of SEQ ID NO: 2 [3]) was “little effect”.

With `CCCCCCCCCCCCCC(=O)OCC(COC(=O)CCCCCCCCCCCCC)OC(=O)CCCCCCCCCCCCC` [Trimyristin, Trimyristin (C14:0)] the “DG 1,2- 2,3-” value [4] was 2%, the “DG 1,3-” value [4] was 12% and the “FA (fatty acid)” value [4] was 1%. The “MG 1- 3-” value [4] was 19%, the “TG (remaining substrate)” value [4] was 66% and the Relative activity (lipase of SEQ ID NO: 2 [5]) was 8.

With `CCCC(=O)Oc1ccc([N+](=O)[O-])cc1` [pNP-butyrate, pNP-butyrate (C4:0)] the Relative activity (lipase of SEQ ID NO: 2 [2]) was 57.

In the case of `CCCCCCCC/C=C\CCCCCCCC(=O)OCCOCC(OCCO)C1OCC(OCCO)C1OCCO` (stereo not shown) [Tween-80], the “effect on activity after incubation” value (lipase) is reported as “decreased the activity”.

For `CCCCCCCCCCCC(=O)OCC(COC(=O)CCCCCCCCCCC)OC(=O)CCCCCCCCCCC` [Trilaurin, Trilaurin (C12:0)], the “DG 1,2- 2,3-” value [4] was 6%, the “DG 1,3-” value [4] was 12% and the “FA (fatty acid)” value [4] was 2%. For the same molecule, the “MG 1- 3-” value [4] was 22%, the “TG (remaining substrate)” value [4] was 58% and the Relative activity (lipase of SEQ ID NO: 2 [5]) was 11.

With `CCCCCCCCCCCCCCCC(=O)OCC(COC(=O)CCCCCCCCCCCCCCC)OC(=O)CCCCCCCCCCCCCCC` [Tripalmitin, Tripalmitin (C16:0)] the “DG 1,2- 2,3-” value [4] was 1%, the “DG 1,3-” value [4] was 13% and the “FA (fatty acid)” value [4] was 3%. The “MG 1- 3-” value [4] was 18%, the “TG (remaining substrate)” value [4] was 65% and the Relative activity (lipase of SEQ ID NO: 2 [5]) was 22.

With `O=S(=O)(F)Cc1ccccc1` [PMSF] the “inactivation of the lipase” value (lipase of SEQ ID NO: 4) was “inactivated” and the “inactivation of the lipase” value (lipase of SEQ ID NO: 2 [3]) was “inactivated”.

For `CCCCCCCCCCCCCCCCCC(=O)OCC(COC(=O)CCCCCCCCCCCCCCCCC)OC(=O)CCCCCCCCCCCCCCCCC` [Tristearin, Tristearin (C18:0)], the conversion ([4]; alcoholysis of triacylglycerol) was 67%, the “DG 1,3-” value [4] was 48% and the “FA (fatty acid)” value [4] was 10%. The “MG 1- 3-” value [4] was 9%, the “TG (remaining substrate)” value [4] was 33% and the Relative activity (lipase of SEQ ID NO: 2 [5]) was 9.

In the case of `CCCCCCCCCCCCCC(=O)Oc1ccc([N+](=O)[O-])cc1` [pNP-myristate, pNP-myristate (C14:0)], the Relative activity (lipase of SEQ ID NO: 2 [2]) is reported as 68.

In the case of `c1ccncc1` [pyridine], the “effect on the activity of the lipase” value (lipase of SEQ ID NO: 2 [1]) is reported as “little effect”.

For `CC(C)(C)O` [tert-butanol], the “effect on the activity of the lipase” value (lipase of SEQ ID NO: 2 [1]) was “little effect”.

With `O[C@@H](CS)[C@@H](O)CS` [DTT] the “effect on the activity of the lipase” value (lipase of SEQ ID NO: 4) was “little effect” and the “effect on the activity of the lipase” value (lipase of SEQ ID NO: 2 [3]) was “little effect”.

In the case of `CCCCCCCCCCCCOS(=O)(=O)[O-].[Na+]` [SDS], the “effect on activity after incubation” value (lipase) is reported as “full enzyme inhibition”.

In the case of `CO` [methanol], the “effect on the activity of the lipase” value (lipase of SEQ ID NO: 2 [1]) is reported as “little effect”.

With `NCCc1ccc(S(=O)(=O)F)cc1` [Pefablock] the “inactivation of the lipase” value (lipase of SEQ ID NO: 4) was “inactivated” and the “inactivation of the lipase” value (lipase of SEQ ID NO: 2 [3]) was “inactivated”.

With Triton X-100 the “effect on activity after incubation” value (lipase) was “decreased the activity”.

For monopalmitoyl glycerols, the “hydrolysis of 1-positional ester bond lower in comparison with 2-positional ester bond” value (lipase of SEQ ID NO: 2 [6]) was “less than 2 fold”.

In the case of `NC(N)=O` [urea], the “effect on the activity of the lipase” value (lipase of SEQ ID NO: 4) is reported as “little effect” and the “effect on the activity of the lipase” value (lipase of SEQ ID NO: 2 [3]) is reported as “little effect”.

For `O=C(O)c1cc[c]([Hg][OH])cc1` [pHMB], the “effect on the activity of the lipase” value (lipase of SEQ ID NO: 4) was “little effect” and the “effect on the activity of the lipase” value (lipase of SEQ ID NO: 2 [3]) was “little effect”.

Molecule `CCCCCCCC(=O)Oc1ccc([N+](=O)[O-])cc1` [pNP-caprylate, pNP-caprylate (C8:0)] has a Relative activity (lipase of SEQ ID NO: 2 [2]) of 90.

`CCCCCCCCCCCCCCCCCC(=O)Oc1ccc([N+](=O)[O-])cc1` [pNP-stearate, pNP-stearate (C18:0)] gave a Relative activity (lipase of SEQ ID NO: 2 [2]) of 8.

With `CCO` [ethanol] the “effect on the activity of the lipase” value (lipase of SEQ ID NO: 2 [1]) was “little effect”.

With `CN(C)C=O` [dimethylformamide] the “effect on the activity of the lipase” value (lipase of SEQ ID NO: 2 [1]) was “little effect”.

In the case of `CC(=O)Oc1ccc([N+](=O)[O-])cc1` [pNP-acetate, pNP-acetate (C2:0)], the Relative activity (lipase of SEQ ID NO: 2 [2]) is reported as 9.

`CCCCCC(=O)Oc1ccc([N+](=O)[O-])cc1` [pNP-caproate, pNP-caproate (C6:0)] showed a Relative activity (lipase of SEQ ID NO: 2 [2]) of 81.

For Triolein (C18:1), the “DG 1,3-” value [4] was 18%, the “FA (fatty acid)” value [4] was 2% and the “MG 1- 3-” value [4] was 17%. The “TG (remaining substrate)” value [4] was 63% and the Relative activity (lipase of SEQ ID NO: 2 [5]) was 12.

With `CC(C)=O` [acetone] the “effect on the activity of the lipase” value (lipase of SEQ ID NO: 2 [1]) was “little effect”.

Work on `CCCCCCCCCC(=O)Oc1ccc([N+](=O)[O-])cc1` [pNP-caprate, pNP-caprate (C10:0)] yielded a Relative activity (lipase of SEQ ID NO: 2 [2]) of 100.

B1: lipase of SEQ ID NO: 2: polypeptide having lipase activity from Thermoanaerobacter thermohydrosulfuricus DSM 7021 and T. brockii subsp. brockii DSM 1457 (protein, listed as Thermoanaerobacter thermohydrosulfuricus)
chain: MQKAVEITYNGKTLRGMMHLPDDVKGKVPMVIMFHGFTGNKVESHFIFVKMSRALEKVGIGSVRFDFYGSGESDGDFSEMTFSSELEDARQILKFVKEQPTTDPERIGLLGLSMGGAIAGIVAREYKDEIKALVLWAPAFNMPELIMNESVKQYGAIMEQLGFVDIGGHKLSKDFVEDISKLNIFELSKGYDKKVLIVHGTNDEAVEYKVSDRILKEVYGDNATRVTIENADHTFKSLEWEKKAIEESVEFFKKELLKG
With B1 the “activity at pH 6.5-9.0” value [7] was greater than 80% and the “specific activity of the purified lipase” value [8] was 12.3 U/mg.

B2: lipase of SEQ ID NO: 4: polypeptide having lipase activity from Caldanaerobacter subterraneus subsp. tengcongensis DSM 15242 (protein, listed as Thermoanaerobacter tencongensis)
chain: VQKAVEFTYNRKTLRGMLHLPEGVSEKVPMVVMFHGFTGNKVESHFIFVKMSRALEKVGIGSVRFDFYGSGESDGDFSEMTFSGELEDARQILDFVKRQPTTDVERIGLLGLSMGGAIAGIIARERKEDVKALVLWAPAFNMPELIMGEGARQYGAIMESLGYVDIGGLKLDRAFVEDIAKFNIFELSRGYEGKVLIVHGTNDEAVEYRISDRILQEVYGDNAFRVTIEGADHTFKNLEWERKAIEESVKFFERELKG
For B2, the “activity at pH 6.5-9.0” value [7] was greater than 60%.
